{"source": "patent US20050209298A1", "about": "“Method of photodynamic diagnosis for vascular diseases” (HAMAMATSU PHOTONICS K.K, priority 2002, published 2005)", "key": {"TPA-caused dermatitis": {"system": "TPA-caused dermatitis", "test": "TPA-induced dermatitis in mouse skin: skin accumulation and PDT after ATX-S10•Na ointment", "format": "in vivo, mice", "details": "1% ointment, 3 hours", "method": "Test 4 (in vivo Test): Induction of Dermatitis in Mouse Skin by Treatment with Tetradecanoyl Phorbol Acetate (TPA) and Therapeutic Effects of PDT Following Application of ATX-S10•Na Ointment Using a hydrophilic ointment base described in Japanese Pharmacopoeia, two hydrophilic ointments, one containing 1% of ATX-S10•Na and the other 10% of the compound, were prepared by a common pharmaceutical technique. Male DBA/1 mice, aged 6 to 8 weeks and weighing 15 to 18 g, were shaved with a clipper and a razor. TPA was then applied to the skin to induce dermatitis. 3) To a test group, the hydrophilic ointment containing 1% ATX-S10•Na was applied. The ointment was applied to the region of the skin where dermatitis was induced and was rinsed off after 3 hours. To a control group, an ATX-S10•Na-free hydrophilic ointment was applied and was also rinsed off after application. […] The test group was then divided into two subgroups: one group was irradiated with laser at 100 J/cm^2 and the other group was not irradiated. Skin histology of each animal was observed."}, "[1]": {"system": "Human Umbilical Vein Endothelial Cells (HUVECS)", "test": "Effects of PDT on inflamed human umbilical vein endothelial cells (MTT viability)", "format": "cell-based", "details": "non-irradiated groups (0 J/cm^2); 25 or 50 μg/mL", "method": "Test 1 (in vitro Test): Effects of PDT on Human Umbilical Vein Endothelial Cells (HUVECS)\nAs a first step, we determined if cell death of inflamed HUVECs can be induced by PDT.\nHUVECs were seeded in a culture medium at […]. After a predetermined culture period, IL-1β(1 ng/mL) and TNF-α(10 ng/mL) were added to stimulate the cells and, thus, cause inflammation of the cells. After a 1-hour stimulation period, the cells were divided into two groups, and 25 μg/ml of ATX-S10•Na of the present invention was added to one group and 50 μg/ml of ATX-S10•Na to the other group. Subsequently, the cells were incubated at 37° C. for 24 hours.\nAfter the incubation period, laser was irradiated onto the cultured cells (each dosage group was divided into five subgroups, which were irradiated at 0, 15, 30, 50, and 100 J/cm^2). 24 hours after the irradiation, the viability of HUVECs was determined by MTT assay."}, "[2]": {"system": "Keratinocytes from a patient with inflammatory keratosis", "test": "Cytotoxicity of PDT against cultured keratinocytes", "format": "cell-based, human", "details": "50 μg/mL; laser 10 J/cm^2; 6 hours after laser irradiation; viable cells prior to irradiation = 100%", "method": "FIG. 6 is a graph showing cytotoxic effects of PDT using ATX-S10•Na of the present invention on cultured keratinocytes. 50 μg/mL of ATX-S10•Na of the present invention was added to the cell culture. After a predetermined culture period, the cells were washed with PBS and were irradiated with laser at 10 J/cm^2. The viability of the keratinocytes was determined 1, 2, 3, 6, 12, and 24 hours after the irradiation and was plotted on a graph.\nTest 3 (in vitro Test): Cytotoxicity Against Cultured Keratinocytes\nKeratinocytes were collected from a patient with inflammatory keratosis and were cultured at 37° C. for 24 hours. To the cell culture, 50 μg/mL of ATX-S10•Na of the present invention was added and the cells were further cultured under the same conditions.\nAssuming the initial number of the viable cells in the culture medium prior to laser irradiation to be 100%, the viability of the cells was determined at 1, 2, 3, 6, 12, and 24 hours after the irradiation. As shown, 75% of the keratinocytes incubated with ATX-S10•Na died 6 hours after laser irradiation."}, "[3]": {"system": "type II collagen-induced arthritis", "test": "Effects of PDT on model mice with type II collagen-induced arthritis", "format": "in vivo", "details": "5 mg/kg i.v.", "method": "Test 2 (in vivo Test): Effects of PDT on Model Mice with Type II Collagen-Induced Arthritis Male DBA/1 mice, aged6 to 8 weeks and weighing 15 to 18 g, were used. Arthritis was induced by type II collagen according to the following schedule. On Day 0, 2 mg. of anti-type II collagen antibody cocktail was intraperitoneally injected. On Day 1, 2 mg of anti-type II collagen antibody cocktail was again intraperitoneally injected. On Day 2 and Day 3, 50 μg of lipopolysaccharide (LPS) was intraperitoneally injected to induce type II collagen arthritis. On Day 5, induction of type II collagen arthritis was confirmed. A test group of 5 animals and a control group of 3 animals were intravenously injected with 5 mg/kg of ATX-S10•Na. The test group was exposed to laser irradiation (dose: 30 J/cm^2) 3 hours after administration of ATX-S10•Na. […] Each animal was perfusion-fixed, and joint tissue was collected and stained with Safranin 0. The resulting decalcified tissue sample was subjected to histological analysis."}}}
{"smiles": "C=CC1=C(C)C2=CC3=C(/C=C/NO)C(C)(O)C(=CC4=NC(=CC5=NC(=CC1=N2)C(C)=C5CCC(=O)N[C@@H](CC(=O)[O-])C(=O)[O-])C(CCC(=O)N[C@@H](CC(=O)[O-])C(=O)[O-])=C4C)N3.[Na+].[Na+].[Na+].[Na+]", "note": "(stereo partly shown) [ATX-S10•Na]", "values": [{"measurement": "TPA-caused dermatitis inflamed region (skin histology)", "setting": "TPA-caused dermatitis; laser 100 J/cm^2", "value": "significant decrease in the inflamed region"}, {"measurement": "TPA-caused dermatitis inflamed region (skin histology)", "setting": "TPA-caused dermatitis; non-irradiated group", "value": "sustained"}, {"measurement": "cell death of HUVECs", "setting": "[1]", "value": "no cell death was observed"}, {"measurement": "keratinocytes died", "setting": "[2]", "value": 75, "unit": "%"}, {"measurement": "synovial infiltration (histological analysis of joint tissue)", "setting": "[3]; laser 30 J/cm^2, test group", "value": "synovial infiltration was suppressed"}, {"measurement": "synovial infiltration (histological analysis of joint tissue)", "setting": "[3]; no laser irradiation (control group)", "value": "significant infiltration of synovial cells"}, {"measurement": "clinical arthritis score", "setting": "[3]; no laser irradiation (control group), Day 14", "value": 4}]}
